Measured values reported in US20240124465A1, “MOLECULES AND METHODS RELATED TO TREATMENT OF DISORDERS ASSOCIATED WITH JAK-2 SIGNALING DYSFUNCTION” (ST. JUDE CHILDREN'S RESEARCH HOSPITAL, priority 2020, published 2024).

Columns and labels:
Format in all cases: cell-based
GSPT1 = target: T1, GSPT1 (Homo sapiens, UniProt P15170); experiment: Western blot assay, GSPT1 neosubstrate degradation; details: MHHCALL4; 100 nM, 24 h; MHH-CALL-4 cells; vehicle control = 100%
T1 construct: endogenous in cells; host or cells: MHH-CALL-4
In short: (§1)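 Cells (MHH-CALL-4) are washed in cold PBS, lysed in RIPA buffer and cleared at 13,000 g, 4° C. Reduced, denatured protein is run on 4%-12% gels, blotted and imaged by fluorescence; each target signal is divided by ACBT and scaled to vehicle (100%).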

IKZF1 = target: T2, IKZF1 (Homo sapiens, UniProt Q13422); experiment: Western blot assay, IKZF1 neosubstrate degradation; details: MHH-CALL-4 cells, vehicle control = 100%
T2 construct: endogenous in cells; host or cells: MHH-CALL-4
Method: (§2) Western blot assay: MHH-CALL-4 Cells were washed twice with ice-cold PBS and lysed in RIPA lysis buffer (Sigma) freshly supplemented with Halt™ Protease Inhibitor Cocktail (ThermoFisher) for 15 minutes on ice. The cell pellet was removed by centrifugation at 13,000 g at 4° C. for 15 minutes. Protein concentration was measured by BCA assay (Thermo Fisher Scientific). Proteins were denatured in NuPAGE LDS 4× sample buffer supplemented with reducing agents (Invitrogen). Typically, 10-20 μg of total protein was loaded per lane on a 4%-12% NUPAGE Bis-Tris gradient gel (Invitrogen) and analyzed by standard immunoblotting and imaged using Li—COR Odyssey CLx (LI-COR Biotechnology, Lincoln, NE). To access the protein degradation, the signal of target protein was normalized by the signal of ACBT and the signal of vehicle control was set as 100%. Primary antibodies used were: JAK1 (Cell Signaling #3332S), JAK2 (#3230S), JAK3 (#8827S), TYK2 (#9312S), GSPT1 (#14980S), CRBN (#71810S), IKZF1 (Santa Cruz Biotechnology, SC-398265) and ACBT (Santa Cruz Biotechnology, SC-47778).

JAK1 = target: T3, JAK1 (Homo sapiens, UniProt P23458); experiment: Western blot assay, JAK1 protein degradation; details: MHH-CALL-4 cells, vehicle control = 100%
T3 construct: endogenous in cells; host or cells: MHH-CALL-4
In short: as §1

MHH-CALL-4 cells = experiment: Cytotoxicity assay (resazurin, 72 hours); parameters: AUC: unit not given beside the values; details: for EC50: MHHCALL4, resazurin; for AUC: area under the dose-response curve
In short: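 Cells grown in RPMI1640 with 10% FBS, 2×10⁵ per well, were exposed to pin-transferred compounds in triplicate for 72 h at 37 °C, 5% CO2. Viability was read after 4 h resazurin incubation. Dose-response AUC was calculated per compound; selected data were fitted by non-linear regression.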

JAK2 = experiment: Western blot assay, JAK2 protein degradation; details: MHH-CALL-4 cells, vehicle control = 100%
In short: as §1

TYK2 = target: T4, TYK2 (Homo sapiens, UniProt P29597); experiment: Western blot assay, TYK2 protein degradation; details: MHH-CALL-4 cells, vehicle control = 100%
T4 construct: endogenous in cells; host or cells: MHH-CALL-4
Method: as §2

JAK3 = target: T5, JAK3 (Homo sapiens, UniProt P52333); experiment: Western blot assay, JAK3 protein degradation; details: MHHCALL4; 100 nM, 24 h; MHH-CALL-4 cells; vehicle control = 100%; read-out: Target Protein Degradation (% remaining at 100 nM, 24 h) JAK3
T5 construct: endogenous in cells; host or cells: MHH-CALL-4
T5 sequence (P52333 1-1124): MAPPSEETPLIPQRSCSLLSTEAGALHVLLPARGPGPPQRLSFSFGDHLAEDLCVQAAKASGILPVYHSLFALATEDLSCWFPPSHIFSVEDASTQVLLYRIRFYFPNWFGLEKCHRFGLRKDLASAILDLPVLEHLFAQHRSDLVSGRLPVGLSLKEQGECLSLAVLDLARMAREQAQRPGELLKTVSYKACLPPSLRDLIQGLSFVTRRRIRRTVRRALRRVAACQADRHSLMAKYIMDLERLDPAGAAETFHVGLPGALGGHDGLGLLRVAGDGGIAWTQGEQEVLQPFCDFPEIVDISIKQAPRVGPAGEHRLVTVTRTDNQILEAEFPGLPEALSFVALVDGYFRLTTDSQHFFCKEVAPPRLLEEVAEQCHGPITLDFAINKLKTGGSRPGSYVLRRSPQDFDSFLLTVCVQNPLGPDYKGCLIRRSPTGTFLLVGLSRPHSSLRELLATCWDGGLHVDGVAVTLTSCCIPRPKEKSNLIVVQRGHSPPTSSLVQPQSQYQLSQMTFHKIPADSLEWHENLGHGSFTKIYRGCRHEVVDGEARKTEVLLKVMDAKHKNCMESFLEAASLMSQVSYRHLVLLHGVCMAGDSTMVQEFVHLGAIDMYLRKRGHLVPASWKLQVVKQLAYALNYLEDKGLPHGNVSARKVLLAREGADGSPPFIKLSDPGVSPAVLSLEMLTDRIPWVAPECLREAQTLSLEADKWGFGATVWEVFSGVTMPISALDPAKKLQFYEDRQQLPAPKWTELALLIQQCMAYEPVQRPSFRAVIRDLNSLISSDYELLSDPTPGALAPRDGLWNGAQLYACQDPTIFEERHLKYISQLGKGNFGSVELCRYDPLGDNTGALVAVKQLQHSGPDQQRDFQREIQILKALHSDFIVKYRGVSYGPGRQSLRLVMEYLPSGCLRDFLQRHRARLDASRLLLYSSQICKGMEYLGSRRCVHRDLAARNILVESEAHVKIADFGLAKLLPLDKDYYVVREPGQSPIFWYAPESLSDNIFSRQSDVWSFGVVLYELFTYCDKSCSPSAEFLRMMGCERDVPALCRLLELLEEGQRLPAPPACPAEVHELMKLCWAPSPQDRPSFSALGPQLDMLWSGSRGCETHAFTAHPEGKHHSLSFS
In short: as §1

T3 sequence (P23458 whole entry): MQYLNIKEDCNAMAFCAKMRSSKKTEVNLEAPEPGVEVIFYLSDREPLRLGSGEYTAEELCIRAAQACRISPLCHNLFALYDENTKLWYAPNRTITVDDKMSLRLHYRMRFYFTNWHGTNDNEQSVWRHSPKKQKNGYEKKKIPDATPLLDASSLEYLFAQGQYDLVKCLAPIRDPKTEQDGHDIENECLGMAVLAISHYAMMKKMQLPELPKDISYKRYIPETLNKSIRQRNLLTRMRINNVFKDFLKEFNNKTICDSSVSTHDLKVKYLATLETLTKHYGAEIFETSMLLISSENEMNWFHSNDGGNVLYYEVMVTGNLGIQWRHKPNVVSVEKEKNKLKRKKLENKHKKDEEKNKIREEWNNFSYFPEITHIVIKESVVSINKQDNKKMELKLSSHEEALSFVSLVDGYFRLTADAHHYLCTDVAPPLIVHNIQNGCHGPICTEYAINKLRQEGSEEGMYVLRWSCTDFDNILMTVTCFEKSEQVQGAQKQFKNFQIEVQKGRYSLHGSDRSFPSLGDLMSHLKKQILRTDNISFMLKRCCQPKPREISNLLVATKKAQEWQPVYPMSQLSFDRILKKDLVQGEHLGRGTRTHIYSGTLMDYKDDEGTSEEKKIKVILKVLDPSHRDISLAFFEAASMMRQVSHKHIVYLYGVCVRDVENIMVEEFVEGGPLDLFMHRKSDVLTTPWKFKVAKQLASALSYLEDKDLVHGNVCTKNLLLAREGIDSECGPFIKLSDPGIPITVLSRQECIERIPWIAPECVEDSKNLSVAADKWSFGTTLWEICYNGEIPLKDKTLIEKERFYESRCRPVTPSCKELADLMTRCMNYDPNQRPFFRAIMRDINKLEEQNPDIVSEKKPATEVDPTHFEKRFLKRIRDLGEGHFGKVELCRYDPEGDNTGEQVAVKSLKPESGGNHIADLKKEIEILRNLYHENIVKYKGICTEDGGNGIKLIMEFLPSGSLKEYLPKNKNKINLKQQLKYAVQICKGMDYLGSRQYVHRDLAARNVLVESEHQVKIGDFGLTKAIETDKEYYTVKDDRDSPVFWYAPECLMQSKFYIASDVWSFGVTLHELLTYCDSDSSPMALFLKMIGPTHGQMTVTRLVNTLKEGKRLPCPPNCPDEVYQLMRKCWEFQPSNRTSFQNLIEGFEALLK
T1 sequence (P15170 whole entry): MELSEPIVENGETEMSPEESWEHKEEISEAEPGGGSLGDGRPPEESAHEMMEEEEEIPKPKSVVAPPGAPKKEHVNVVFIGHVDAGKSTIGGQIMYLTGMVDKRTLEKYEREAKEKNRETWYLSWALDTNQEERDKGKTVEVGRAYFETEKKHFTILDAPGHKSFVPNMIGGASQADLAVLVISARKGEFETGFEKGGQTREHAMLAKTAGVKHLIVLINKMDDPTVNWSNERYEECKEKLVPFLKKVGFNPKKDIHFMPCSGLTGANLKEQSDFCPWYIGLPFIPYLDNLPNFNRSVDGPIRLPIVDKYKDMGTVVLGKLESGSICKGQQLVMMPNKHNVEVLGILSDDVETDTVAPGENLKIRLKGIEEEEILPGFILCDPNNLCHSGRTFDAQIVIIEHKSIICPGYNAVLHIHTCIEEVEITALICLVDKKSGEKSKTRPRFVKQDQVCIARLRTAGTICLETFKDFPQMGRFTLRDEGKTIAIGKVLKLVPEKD
T4 sequence (P29597 whole entry): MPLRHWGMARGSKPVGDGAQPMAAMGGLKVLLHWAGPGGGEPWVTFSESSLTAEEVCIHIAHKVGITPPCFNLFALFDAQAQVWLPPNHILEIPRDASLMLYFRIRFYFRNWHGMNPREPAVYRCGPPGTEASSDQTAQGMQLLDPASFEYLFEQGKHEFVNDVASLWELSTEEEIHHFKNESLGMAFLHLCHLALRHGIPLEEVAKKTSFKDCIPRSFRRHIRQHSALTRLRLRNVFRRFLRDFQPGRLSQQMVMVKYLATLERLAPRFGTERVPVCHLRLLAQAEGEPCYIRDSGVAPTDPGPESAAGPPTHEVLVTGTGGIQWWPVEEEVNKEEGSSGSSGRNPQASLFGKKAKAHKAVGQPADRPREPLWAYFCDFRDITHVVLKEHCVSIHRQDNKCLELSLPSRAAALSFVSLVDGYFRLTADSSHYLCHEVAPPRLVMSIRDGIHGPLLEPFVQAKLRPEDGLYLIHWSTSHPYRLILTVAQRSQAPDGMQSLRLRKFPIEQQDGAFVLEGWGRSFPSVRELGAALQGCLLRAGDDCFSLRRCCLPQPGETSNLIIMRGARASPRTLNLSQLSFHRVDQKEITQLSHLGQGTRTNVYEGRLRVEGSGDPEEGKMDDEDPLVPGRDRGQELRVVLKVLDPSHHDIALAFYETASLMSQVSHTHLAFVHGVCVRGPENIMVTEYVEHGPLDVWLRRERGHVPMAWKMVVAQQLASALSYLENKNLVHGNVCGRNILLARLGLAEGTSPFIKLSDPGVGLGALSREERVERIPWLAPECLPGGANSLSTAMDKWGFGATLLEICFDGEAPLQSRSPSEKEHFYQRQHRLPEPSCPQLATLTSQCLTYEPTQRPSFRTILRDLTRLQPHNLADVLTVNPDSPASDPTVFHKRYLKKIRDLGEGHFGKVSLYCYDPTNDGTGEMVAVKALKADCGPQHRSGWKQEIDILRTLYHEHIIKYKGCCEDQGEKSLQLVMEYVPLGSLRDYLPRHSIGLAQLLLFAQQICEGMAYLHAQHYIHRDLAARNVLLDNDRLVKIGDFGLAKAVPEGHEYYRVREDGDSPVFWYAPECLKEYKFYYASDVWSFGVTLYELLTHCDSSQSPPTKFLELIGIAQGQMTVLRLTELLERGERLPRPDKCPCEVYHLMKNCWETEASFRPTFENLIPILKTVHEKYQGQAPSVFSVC
T2 sequence (Q13422 whole entry): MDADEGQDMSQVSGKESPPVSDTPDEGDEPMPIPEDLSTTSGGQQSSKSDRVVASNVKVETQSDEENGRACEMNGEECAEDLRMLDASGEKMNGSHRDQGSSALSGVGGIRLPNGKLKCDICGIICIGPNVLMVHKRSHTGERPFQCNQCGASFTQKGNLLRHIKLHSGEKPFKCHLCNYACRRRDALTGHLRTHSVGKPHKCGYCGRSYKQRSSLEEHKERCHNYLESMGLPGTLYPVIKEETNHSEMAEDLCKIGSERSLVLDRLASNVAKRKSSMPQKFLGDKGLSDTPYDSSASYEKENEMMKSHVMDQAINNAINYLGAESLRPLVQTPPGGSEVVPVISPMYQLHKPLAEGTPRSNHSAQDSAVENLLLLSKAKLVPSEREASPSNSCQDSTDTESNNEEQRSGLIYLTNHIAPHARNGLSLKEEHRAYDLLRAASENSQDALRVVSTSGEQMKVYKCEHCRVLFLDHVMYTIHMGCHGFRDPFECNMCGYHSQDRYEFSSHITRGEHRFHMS

| SMILES | remaining activity at 0.1 µM (GSPT1) | Neosubstrate Degradation (% remaining at 100 nM, 24 h) IKZF1 (IKZF1) | Target Protein Degradation (% remaining at 100 nM, 24 h) JAK1 (JAK1) | EC50 (MHH-CALL-4 cells) | AUC (MHH-CALL-4 cells) | Target Protein Degradation (% remaining at 100 nM, 24 h) JAK2 (JAK2) | Target Protein Degradation (% remaining at 100 nM, 24 h) TYK2 (TYK2) | remaining activity at 0.1 µM (JAK3) |
| --- | --- | --- | --- | --- | --- | --- | --- | --- |
| CCS(=O)(=O)N1CC(CC#N)(n2cc(-c3nc(Nc4ccc(C(=O)NCCCN5CCN(c6ccc(C7CCC(=O)NC7=O)cc6)CC5)cc4)nc4[nH]ccc34)cn2)C1 (centres unmarked) [Compound 10] | 109% | 87 % remaining | 86 % remaining | 2580 nM | 114 | 25 % remaining | 118 % remaining | 46% |
| CCS(=O)(=O)N1CC(CC#N)(n2cc(-c3nc(Nc4ccc(C(=O)NCCCCOc5ccc(C6CCC(=O)NC6=O)cc5)cc4)nc4[nH]ccc34)cn2)C1 (centres unmarked) [Compound 5] | 71% | 79 % remaining | 124 % remaining | 2.2 nM | 124 | 22 % remaining | 142 % remaining | 65% |
| CCS(=O)(=O)N1CC(CC#N)(n2cc(-c3nc(Nc4ccc(C(=O)NCCCCOc5cccc(C6CCC(=O)NC6=O)c5)cc4)nc4[nH]ccc34)cn2)C1 (centres unmarked) [Compound 41, 4-((4-(1-(3-(cyanomethyl)-1-(ethylsulfonyl)azetidin-3-yl)-1H-pyrazol-4-yl)-7H-pyrrolo[2,3-d]pyrimidin-2-yl)amino)-N-(4-(3-(2,6-dioxopiperidin-3-yl)phenoxy)butyl)benzamide] |  |  | 97 % remaining | 51.2 nM | 202 | 28 % remaining | 125 % remaining | 46% |
| CCS(=O)(=O)N1CC(CC#N)(n2cc(-c3nc(Nc4ccc(C(=O)NCCCNC(=O)COc5ccc(C6CCC(=O)NC6=O)cc5)cc4)nc4[nH]ccc34)cn2)C1 (centres unmarked) [Compound 18] | 117% | 105 % remaining | 83 % remaining | > 812 nM | 95 | 82 % remaining | 122 % remaining | 80% |
| CCS(=O)(=O)N1CC(CC#N)(n2cc(-c3nc(Nc4ccc(C(=O)NCCNC(=O)COc5ccc(C6CCC(=O)NC6=O)cc5)cc4)nc4[nH]ccc34)cn2)C1 (centres unmarked) [Compound 17] | 110% | 96 % remaining | 105 % remaining | > 784 nM |  | 120 % remaining | 88 % remaining | 102% |
| CCS(=O)(=O)N1CC(CC#N)(n2cc(-c3nc(Nc4ccc(C(=O)NC5CCN(c6ccc(C7CCC(=O)NC7=O)cc6)CC5)cc4)nc4[nH]ccc34)cn2)C1 (centres unmarked) [Compound 46, 4-((4-(1-(3-(cyanomethyl)-1-(ethylsulfonyl)azetidin-3-yl)-1H-pyrazol-4-yl)-7H-pyrrolo[2,3-d]pyrimidin-2-yl)amino)-N-(1-(4-(2,6-dioxopiperidin-3-yl)phenyl)piperidin-4-yl)benzamide] |  |  | 98 % remaining | 9.25 nM |  | 20 % remaining | 119 % remaining |  |
| CCS(=O)(=O)N1CC(CC#N)(n2cc(-c3nc(Nc4ccc(C(=O)NCCCCOc5ccc(C6CCC(=O)N(C)C6=O)cc5)cc4)nc4[nH]ccc34)cn2)C1 (centres unmarked) [Compound 47, 4-((4-(1-(3-(cyanomethyl)-1-(ethylsulfonyl)azetidin-3-yl)-1H-pyrazol-4-yl)-7H-pyrrolo[2,3-d]pyrimidin-2-yl)amino)-N-(4-(4-(1-methyl-2,6-dioxopiperidin-3-yl)phenoxy)butyl)benzamide] | 86% |  | 114 % remaining | 3.35 nM |  | 128 % remaining | 89 % remaining | 101% |
| CCS(=O)(=O)N1CC(CC#N)(n2cc(-c3nc(Nc4ccc(C(=O)NCCN5CCN(c6ccc(C7CCC(=O)NC7=O)cc6)CC5)cc4)nc4[nH]ccc34)cn2)C1 (centres unmarked) [Compound 37, 4-((4-(1-(3-(cyanomethyl)-1-(ethylsulfonyl)azetidin-3-yl)-1H-pyrazol-4-yl)-7H-pyrrolo[2,3-d]pyrimidin-2-yl)amino)-N-(2-(4-(4-(2,6-dioxopiperidin-3-yl)phenyl)piperazin-1-yl)ethyl)benzamide] |  |  | 120 % remaining | 2.7 nM | 149 | 26 % remaining | 121 % remaining | 58% |
